The assay concerns the target T1, GAK (cyclin G-associated kinase), GST-tagged human GAK (Homo sapiens, UniProt O14976).
T1 sequence (O14976 1-1311): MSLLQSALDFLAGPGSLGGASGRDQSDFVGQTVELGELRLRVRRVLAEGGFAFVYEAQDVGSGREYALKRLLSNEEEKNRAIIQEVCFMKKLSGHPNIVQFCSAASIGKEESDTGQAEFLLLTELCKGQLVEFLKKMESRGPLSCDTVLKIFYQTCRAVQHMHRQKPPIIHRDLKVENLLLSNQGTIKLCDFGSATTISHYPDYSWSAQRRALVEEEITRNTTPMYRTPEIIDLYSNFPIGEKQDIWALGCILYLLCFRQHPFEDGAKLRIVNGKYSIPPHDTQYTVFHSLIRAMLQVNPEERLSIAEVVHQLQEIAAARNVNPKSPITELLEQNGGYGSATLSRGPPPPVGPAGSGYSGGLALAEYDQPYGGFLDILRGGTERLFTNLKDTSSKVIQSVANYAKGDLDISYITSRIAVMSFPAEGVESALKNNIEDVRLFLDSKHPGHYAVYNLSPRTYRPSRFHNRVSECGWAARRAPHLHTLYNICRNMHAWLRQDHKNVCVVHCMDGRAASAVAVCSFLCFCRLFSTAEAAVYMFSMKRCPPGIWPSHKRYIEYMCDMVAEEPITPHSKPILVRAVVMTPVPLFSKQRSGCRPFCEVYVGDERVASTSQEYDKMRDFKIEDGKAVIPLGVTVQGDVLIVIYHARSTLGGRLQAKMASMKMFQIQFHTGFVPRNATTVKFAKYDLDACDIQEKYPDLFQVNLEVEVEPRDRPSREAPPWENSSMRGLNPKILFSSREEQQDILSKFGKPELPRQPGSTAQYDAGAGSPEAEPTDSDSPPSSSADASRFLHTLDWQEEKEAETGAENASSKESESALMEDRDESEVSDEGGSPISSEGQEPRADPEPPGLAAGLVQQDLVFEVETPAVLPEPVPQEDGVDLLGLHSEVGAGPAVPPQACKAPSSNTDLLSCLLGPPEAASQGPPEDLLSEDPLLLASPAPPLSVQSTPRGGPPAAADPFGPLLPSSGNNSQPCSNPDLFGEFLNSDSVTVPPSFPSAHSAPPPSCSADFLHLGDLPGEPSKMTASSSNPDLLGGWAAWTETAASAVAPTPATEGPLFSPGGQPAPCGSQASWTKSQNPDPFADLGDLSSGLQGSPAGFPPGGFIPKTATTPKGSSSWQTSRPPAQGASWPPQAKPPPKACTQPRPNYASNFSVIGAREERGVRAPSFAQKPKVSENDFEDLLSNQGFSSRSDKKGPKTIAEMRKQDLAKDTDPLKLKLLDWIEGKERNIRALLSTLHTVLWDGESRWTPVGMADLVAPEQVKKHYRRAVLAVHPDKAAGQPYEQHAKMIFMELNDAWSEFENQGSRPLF
Kind of assay: […]-ATP in vitro kinase assay, SDS-PAGE autoradiography. The format is biochemical. The following applies: substrate mouse PP2A B'γ fragment, also autophosphorylation, 5 µM ATP, 10 mM MgCl2, 5 mM MnCl2, pH 7.5, 30°C, 30 min.

Each structure is given as a SMILES string.

For `C[S+]([O-])c1ccc(-c2nc(-c3ccc(F)cc3)c(-c3ccncc3)[nH]2)cc1` (stereo not shown) [SB203580], the “intensity ratio of phosphorylated PP2A B'γ and GAK” value (from here on “intensity ratio”) is “Both of these compounds inhibited GAK activity similarly”. Turning to `COc1cc2ncnc(Nc3ccc(F)c(Cl)c3)c2cc1OCCCN1CCOCC1` [gefitinib], the “intensity ratio” value was “Gefitinib inhibited GAK autophosphorylation and GAK-mediated phosphorylation of PP2A B′γ in a dose-dependent manner”.

Take `C#Cc1cccc(Nc2ncnc3cc(OCCOC)c(OCCOC)cc23)c1` [erlotinib]: the “intensity ratio” value was “Both of these compounds inhibited GAK activity similarly”.

Consider `Oc1ccc(/C=C/c2cc(O)cc(O)c2)cc1` [resveratrol], for which the “intensity ratio” value (10 µM compound) was “the same concentration of resveratrol had only a slight inhibitory effect”.
